The test system of test [1] is Human immunodeficiency virus 1. The experiment in a line: Antiviral activity against HIV1 NL4-3 infected in human MT4 cells assessed as reduction in p24 Gag protein production incubated for 6 days and measured on day 7 by chemiluminescent enzyme immunoassay. The class given is functional, organism-based. The settings on record: Human immunodeficiency virus 1, NL4-3, MT4.

The target of a further test is Protease (Human immunodeficiency virus 1, UniProt Q9YQ12). The experiment in a line: Inhibition of HIV1 protease using Ac-Thr-Ile-Nle-Nle-Gln-Arg-NH2 substrate by continuous fluorometric assay.
Sequence of Protease (Q9YQ12 whole entry): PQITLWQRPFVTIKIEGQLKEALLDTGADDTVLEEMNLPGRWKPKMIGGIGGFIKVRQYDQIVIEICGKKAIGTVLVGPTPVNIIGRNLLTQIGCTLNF

This is an account of results in ChEMBL document CHEMBL4385670, “Potent HIV-1 protease inhibitors incorporating squaramide-derived P2 ligands: Design, synthesis, and biological evaluation” (Bioorg Med Chem Lett, 2019).

Each structure is given as a SMILES string. A value given as a limit tells only on which side of the number the result lay.

In the case of `COc1ccc(S(=O)(=O)N(CC(C)C)C[C@@H](O)[C@H](Cc2ccccc2)Nc2c(N(C)[C@H]3CCOC3)c(=O)c2=O)cc1`, the IC50 (in general, the midpoint of a concentration-inhibition curve) in test [1] was over 1000 nM. In addition, affinity on Protease was put at a Ki of 397 nM.
On to `COc1ccc(S(=O)(=O)N(CC(C)C)C[C@@H](O)[C@H](Cc2ccccc2)Nc2c(N(C)[C@@H]3CCOC3)c(=O)c2=O)cc1`, for which the IC50 in test [1] is over 1000 nM. In addition, the Ki – broadly, the equilibrium dissociation constant of an inhibitor or competing ligand from its target – at Protease came to 0.51 nM.
The matching figures for `COc1ccc(S(=O)(=O)N(CC(C)C)C[C@@H](O)[C@H](Cc2ccccc2)Nc2c(N(C)[C@@H]3CO[C@@H]4OCC[C@@H]43)c(=O)c2=O)cc1`: over 1000 nM and 201 nM.
The matching figures for `COc1ccc(S(=O)(=O)N(CC(C)C)C[C@@H](O)[C@H](Cc2ccccc2)Nc2c(N[C@H]3CO[C@H]4OCC[C@H]43)c(=O)c2=O)cc1`: over 1000 nM and 54.8 nM.
The corresponding values for `COc1ccc(S(=O)(=O)N(CC(C)C)C[C@@H](O)[C@H](Cc2ccccc2)Nc2c(O[C@@H]3CCOC3)c(=O)c2=O)cc1` are over 1000 nM and 226 nM.
On to `COc1ccc(S(=O)(=O)N(CC(C)C)C[C@@H](O)[C@H](Cc2ccccc2)Nc2c(N[C@@H]3CO[C@@H]4OCC[C@@H]43)c(=O)c2=O)cc1`, for which the IC50 in test [1] is over 1000 nM. For the same molecule, on Protease, the Ki is 5.6 nM.
The matching figures for `COc1ccc(S(=O)(=O)N(CC(C)C)C[C@@H](O)[C@H](Cc2ccccc2)Nc2c(N(C)[C@H]3CO[C@H]4OCC[C@H]43)c(=O)c2=O)cc1`: over 1000 nM and 4.5 nM.
Regarding `COc1ccc(S(=O)(=O)N(CC(C)C)C[C@@H](O)[C@H](Cc2ccccc2)Nc2c(O[C@H]3CCOC3)c(=O)c2=O)cc1`, the IC50 in test [1] was over 1000 nM. Further, the affinity on Protease corresponds to a Ki of 31.1 nM.
On to `COc1ccc(S(=O)(=O)N(CC(C)C)C[C@@H](O)[C@H](Cc2ccccc2)Nc2c(N[C@H]3CCOC3)c(=O)c2=O)cc1`, for which, in test [1], the IC50 is over 1000 nM. This molecule yielded a Ki on Protease of 6100 nM.
The corresponding values for `COc1ccc(S(=O)(=O)N(CC(C)C)C[C@@H](O)[C@H](Cc2ccccc2)Nc2c(N[C@@H]3CCOC3)c(=O)c2=O)cc1` are over 1000 nM and 200 nM.
Consider `COCCOc1c(N[C@@H](Cc2ccccc2)[C@H](O)CN(CC(C)C)S(=O)(=O)c2ccc(OC)cc2)c(=O)c1=O`, for which the IC50 in test [1] was over 1000 nM. Also, on Protease, the affinity corresponds to a Ki of 1960 nM.
The matching figures for `CCOc1c(N[C@@H](Cc2ccccc2)[C@H](O)CN(CC(C)C)S(=O)(=O)c2ccc(OC)cc2)c(=O)c1=O`: over 1000 nM and 463 nM.
